Results taken from ChEMBL document CHEMBL5046218, “Novel Dual-Target μ-Opioid Receptor and Dopamine D3 Receptor Ligands as Potential Nonaddictive Pharmacotherapeutics for Pain Management” (J Med Chem, 2021).
The source made the active and inactive calls. The calls are words filed in the database; no cut-off is given here.

How the values were obtained:
[1] = target: T1, D(2) dopamine receptor (Homo sapiens, UniProt P14416); experiment: Displacement of [3H]-N-methylspiperone from human dopamine D2 receptor expressed in HEK293 cell membranes incubated for 60 mins by microbeta scintillation counting analysis; parameters: species or system Membrane
T1 sequence (P14416 whole entry): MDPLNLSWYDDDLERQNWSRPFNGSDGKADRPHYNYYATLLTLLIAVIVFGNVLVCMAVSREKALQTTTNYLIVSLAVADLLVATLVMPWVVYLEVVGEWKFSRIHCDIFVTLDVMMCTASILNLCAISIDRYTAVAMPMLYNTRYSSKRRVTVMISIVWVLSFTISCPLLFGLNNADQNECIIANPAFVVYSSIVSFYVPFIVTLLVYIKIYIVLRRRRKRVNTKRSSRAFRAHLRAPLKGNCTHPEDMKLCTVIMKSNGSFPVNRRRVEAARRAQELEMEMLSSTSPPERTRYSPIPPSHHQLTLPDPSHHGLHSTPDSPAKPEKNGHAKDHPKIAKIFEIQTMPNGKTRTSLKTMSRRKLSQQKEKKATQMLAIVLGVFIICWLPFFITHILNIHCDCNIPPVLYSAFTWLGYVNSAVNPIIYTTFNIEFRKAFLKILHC

[2] = target: T2, D(4) dopamine receptor (Homo sapiens, UniProt P21917); experiment: Displacement of [3H]-N-methylspiperone from human dopamine D4 receptor expressed in HEK293 cell membranes incubated for 60 mins by microbeta scintillation counting analysis; parameters: species or system Membrane
T2 sequence (P21917 whole entry): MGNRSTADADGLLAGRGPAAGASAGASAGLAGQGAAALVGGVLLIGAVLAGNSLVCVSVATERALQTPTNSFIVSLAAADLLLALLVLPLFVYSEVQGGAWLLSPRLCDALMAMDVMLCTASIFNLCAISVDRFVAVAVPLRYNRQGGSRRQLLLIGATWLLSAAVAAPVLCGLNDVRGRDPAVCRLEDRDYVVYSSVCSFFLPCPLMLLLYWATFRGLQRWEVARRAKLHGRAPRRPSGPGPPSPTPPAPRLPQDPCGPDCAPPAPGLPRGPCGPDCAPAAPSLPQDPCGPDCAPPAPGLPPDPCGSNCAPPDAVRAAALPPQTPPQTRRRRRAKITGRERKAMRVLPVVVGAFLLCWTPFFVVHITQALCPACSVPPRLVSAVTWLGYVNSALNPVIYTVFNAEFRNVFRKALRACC

[3] = target: T3, D(3) dopamine receptor (Homo sapiens, UniProt P35462); experiment: Displacement of [3H]-N-methylspiperone from human dopamine D3 receptor expressed in HEK293 cell membranes incubated for 60 mins by microbeta scintillation counting analysis; parameters: species or system Membrane
T3 sequence (P35462 whole entry): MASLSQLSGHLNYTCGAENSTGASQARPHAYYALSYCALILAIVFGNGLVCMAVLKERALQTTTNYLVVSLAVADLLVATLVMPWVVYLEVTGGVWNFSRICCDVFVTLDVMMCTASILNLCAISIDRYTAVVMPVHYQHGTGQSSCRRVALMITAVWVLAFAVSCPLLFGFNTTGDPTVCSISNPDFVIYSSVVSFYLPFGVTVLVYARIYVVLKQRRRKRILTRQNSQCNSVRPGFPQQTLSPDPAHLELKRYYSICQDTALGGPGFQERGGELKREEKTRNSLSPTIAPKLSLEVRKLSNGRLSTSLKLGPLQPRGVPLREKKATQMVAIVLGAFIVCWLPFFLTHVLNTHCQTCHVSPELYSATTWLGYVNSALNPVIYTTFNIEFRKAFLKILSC

[4] = target: T3, D(3) dopamine receptor; experiment: Displacement of [3H]-(R)-(+)7-OH-DPAT from human dopamine D3 receptor expressed in HEK293 cell membranes incubated for 90 mins by microbeta scintillation counting analysis; parameters: species or system Membrane
[5] = target: T1, D(2) dopamine receptor; experiment: Displacement of [3H]-(R)-(+)7-OH-DPAT from human dopamine D2 receptor expressed in HEK293 cell membranes incubated for 90 mins by microbeta scintillation counting analysis; parameters: species or system Membrane
[6] = target: Mu-type opioid receptor (Homo sapiens) (UniProt P35372); conditions: HEK293T, time 10.0 min
Mu-type opioid receptor (Homo sapiens), sequence (P35372 whole entry): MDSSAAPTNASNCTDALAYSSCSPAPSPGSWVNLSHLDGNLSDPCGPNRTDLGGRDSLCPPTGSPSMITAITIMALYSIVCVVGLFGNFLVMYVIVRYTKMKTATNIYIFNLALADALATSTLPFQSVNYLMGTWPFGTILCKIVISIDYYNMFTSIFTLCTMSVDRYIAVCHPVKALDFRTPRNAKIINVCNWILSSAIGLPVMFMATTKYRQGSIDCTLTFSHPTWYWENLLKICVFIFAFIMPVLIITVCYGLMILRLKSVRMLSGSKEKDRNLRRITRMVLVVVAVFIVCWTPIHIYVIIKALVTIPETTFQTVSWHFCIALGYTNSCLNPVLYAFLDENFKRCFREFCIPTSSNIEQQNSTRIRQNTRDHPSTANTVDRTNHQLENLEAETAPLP

[7] = target: T3, D(3) dopamine receptor; experiment: Agonist activity at human dopamine D3 receptor expressed in HEK293T cells assessed as GalphaoA activation preincubated for 5 mins with coelenterazine followed by compound addition and measured after 10 mins by BRET assay; format: functional, cell-based
[8] = target: Mu-type opioid receptor (Homo sapiens) (UniProt P35372); conditions: HEK293T, time 10.0 min; remark: listed apart in the source
[9] = target: Mu-type opioid receptor (Homo sapiens) (UniProt P35372); conditions: HEK293T, time 10.0 min; remark: listed apart in the source
[10] = target: T3, D(3) dopamine receptor; conditions: HEK293T, time 10.0 min
[11] = target: T3, D(3) dopamine receptor; experiment: Antagonist activity at human […] expressed in HEK293T cells assessed as GalphaoA activation preincubated with compound in D-PBS for 3 hrs followed by coelenterazine addition for 5 mins once again compound addition for 10 mins by BRET assay; format: functional, cell-based

CCc1cccc(N2CCN(CC(O)CCNCCC(C(=O)N(C)C)(c3ccccc3)c3ccccc3)CC2)c1Cl (configuration not stated)
Ki [1]: 0.457 µM | Ki [2]: 1.26 µM | Ki [3]: 0.123 µM | Ki [4]: 0.123 µM | Ki [5]: 0.114 µM

CCc1cccc(N2CCN(CCC(c3cccc(OC)c3)c3cccc(OC)c3)CC2)c1Cl
Ki [1]: 0.17 µM | Ki [2]: 0.0634 µM | Ki [3]: 0.0938 µM

CN(C)C(=O)C(CCN1CCc2ccc(C#N)cc2C1)(c1ccccc1)c1ccccc1
Ki [1]: 2.27 µM | Ki [2]: 18 µM | Ki [3]: 1.63 µM

CN(C)CCC(C(=O)NCCCCN1CCN(c2cccc(Cl)c2Cl)CC1)(c1ccccc1)c1ccccc1
Ki [1]: 0.0427 µM | Ki [2]: 0.466 µM | Ki [3]: 0.0118 µM

CN1CCC(c2ccccc2)(c2ccccc2)C1
Ki [1]: > 100 µM | Ki [2]: 35.4 µM | Ki [3]: > 100 µM

CCc1cc(Cl)c(OC)c(C(=O)NC[C@@H]2CCCN2CCCCNCCC(C(=O)N(C)C)(c2ccccc2)c2ccccc2)c1O
Ki [1]: 1.73 µM | Ki [2]: 6.61 µM

N#CC(CCN1CCN(c2cccc(Cl)c2Cl)CC1)(c1ccccc1)c1ccccc1
Ki [1]: 2.63 µM | Ki [2]: 8.49 µM | Ki [3]: 2.24 µM

CCc1cc(Cl)c(OC)c(C(=O)NCC2CCCN2CCCCNCCC(C(=O)N(C)C)(c2ccccc2)c2ccccc2)c1O (configuration not stated)
Ki [1]: 0.502 µM | Ki [2]: 3.42 µM | Ki [5]: 0.0937 µM

CCOC(=O)/C=C1\[C@@H]2CCC[C@@]1(c1cccc(O)c1)CCN2C[C@H]1C[C@@H]1CCNC(=O)c1cc2ccccc2[nH]1 (relative stereo)
Ki [1]: 2.86 µM | Ki [2]: 29.2 µM | Ki [3]: 1.29 µM | pEC50 [6]: inactive | EC50 [7]: 1.48 µM | pEC50 [8]: inactive | pEC50 [9]: inactive

CCc1cc(Cl)c(OC)c(C(=O)NCC2CCCN2CC(=O)N2CCC(c3ccccc3)(c3ccccc3)C2)c1O (configuration not stated)
Ki [1]: 2.38 µM | Ki [2]: 31 µM | Ki [3]: 0.288 µM

CCC(=O)N1CCC(c2ccccc2)(c2ccccc2)C1
Ki [1]: > 100 µM | Ki [2]: > 100 µM | Ki [3]: > 100 µM

CCC(=O)C(CC(C)N(C)C)(c1ccccc1)c1ccccc1 (configuration not stated) [METHADONE]
Ki [1]: > 100 µM | Ki [2]: 26.2 µM | Ki [3]: 2.11 µM

Oc1cccc(C(CCNCCCCN2CCN(c3ccccc3)CC2)c2cccc(O)c2)c1
Ki [1]: 0.987 µM | Ki [2]: 0.422 µM | Ki [3]: 0.249 µM

CN(C)CCC(C#N)(c1ccccc1)c1ccccc1
Ki [1]: 17.9 µM | Ki [2]: 23.2 µM | Ki [3]: 16.1 µM

N#CC(CCNCCCCC(=O)N1CCN(c2cccc(Cl)c2Cl)CC1)(c1ccccc1)c1ccccc1
Ki [1]: 1.94 µM | Ki [2]: 3.93 µM | Ki [3]: 1.36 µM

CN(C)C(=O)C(CCN1CCC(O)(c2ccc(Cl)cc2)CC1)(c1ccccc1)c1ccccc1 [LOPERAMIDE]
Ki [1]: 5.79 µM | Ki [2]: 1.85 µM | Ki [3]: […]

CN(C)CCC(C(=O)N(C)C)(c1ccccc1)c1ccccc1
Ki [1]: > 100 µM | Ki [2]: 20.2 µM | Ki [3]: 36.9 µM

CN(C)C(=O)C(CCNCCCCN1CCN(c2cccc(Cl)c2Cl)CC1)(c1ccccc1)c1ccccc1
Ki [2]: 0.378 µM

CCOC(=O)/C=C1\[C@@H]2CCC[C@@]1(c1cccc(O)c1)CCN2CC1CC1CCNC(=O)c1cc2ccccc2[nH]1 (some centres not stated)
Ki [1]: 3.89 µM | Ki [2]: 23.4 µM | Ki [3]: 4.35 µM

CCc1cccc(N2CCN(CCC(c3cccc(O)c3)c3cccc(OC)c3)CC2)c1Cl (configuration not stated)
Ki [1]: 0.19 µM | Ki [2]: 0.0385 µM

COc1cccc(C(=CCNCCCCN2CCN(c3cccc(Cl)c3Cl)CC2)c2cccc(OC)c2)c1
Ki [1]: 5.24 µM | Ki [2]: 26.1 µM | Ki [3]: 0.342 µM

CCc1cccc(N2CCN(CCC(c3cccc(O)c3)c3cccc(O)c3)CC2)c1Cl
Ki [1]: 0.187 µM | Ki [2]: 0.0192 µM | Ki [3]: 0.2 µM

CCOC(=O)/C=C1\[C@@H]2CCC[C@@]1(c1cccc(O)c1)CCN2CCc1ccccc1
Ki [1]: 0.636 µM | Ki [2]: 5.47 µM | Ki [5]: 0.186 µM

CCOC(=O)/C=C1\[C@@H]2CCC[C@@]1(c1cccc(O)c1)CCN2CCCCNC(=O)c1cc2ccccc2[nH]1
Ki [1]: 2.95 µM | Ki [2]: 13.8 µM | Ki [3]: 13.7 µM | pEC50 [10]: inactive | pEC50 [6]: inactive | pIC50 [11]: > 5 | pEC50 [8]: inactive | pEC50 [9]: inactive

CCOC(=O)/C=C1\[C@@H]2CCC[C@@]1(c1cccc(O)c1)CCN2
Ki [1]: > 100 µM | Ki [2]: > 100 µM | Ki [3]: > 100 µM

O=C(NCCCCN1CC[C@]2(c3cccc(O)c3)CCC[C@H]1[C@H]2O)c1cc2ccccc2[nH]1
Ki [1]: 1.31 µM | Ki [2]: 3.81 µM

CCC(=O)C(CCN(C)C)(c1ccccc1)c1ccccc1 [NORMETHADONE]
Ki [1]: 34.9 µM | Ki [2]: > 100 µM | Ki [3]: 4.27 µM

CCc1cc(Cl)c(OC)c(C(=O)NC[C@@H]2C[C@@H](OCCCCNCCC(C(=O)N(C)C)(c3ccccc3)c3ccccc3)CN2)c1O
Ki [1]: 0.00941 µM | Ki [2]: 0.674 µM | Ki [3]: 0.00221 µM

N#CC(CCNCCc1ccccc1)(c1ccccc1)c1ccccc1
Ki [1]: 17.6 µM | Ki [2]: 13.9 µM | Ki [3]: 8.96 µM

CCOC(=O)/C=C1\[C@@H]2CCC[C@@]1(c1cccc(O)c1)CCN2C[C@@H]1C[C@H]1CCNC(=O)c1cc2ccccc2[nH]1 (relative stereo)
Ki [1]: 4.86 µM | Ki [2]: 17.6 µM | Ki [3]: 2.3 µM | pEC50 [6]: inactive | pEC50 [8]: inactive | pEC50 [9]: inactive

Oc1cccc([C@]23CCC[C@H](NCC2)[C@@H]3O)c1
Ki [1]: > 100 µM | Ki [2]: > 100 µM | Ki [3]: > 100 µM | Ki [4]: > 100 µM | Ki [5]: > 100 µM

O=C(NCCCCN1CC[C@]2(c3cccc(O)c3)CCC[C@H]1[C@@H]2O)c1cc2ccccc2[nH]1
Ki [1]: 4.53 µM | Ki [2]: 5.63 µM | Ki [3]: 5.63 µM

CCc1cccc(N2CCN(CCC(C(=O)N(C)C)(c3ccccc3)c3ccccc3)CC2)c1Cl
Ki [1]: 0.043 µM | Ki [2]: 0.0648 µM | Ki [3]: 0.069 µM | Ki [4]: 0.197 µM | Ki [5]: 0.0203 µM

CCc1cc(Cl)c(OC)c(C(=O)NC[C@@H]2CCCN2CCC(C#N)(c2ccccc2)c2ccccc2)c1O
Ki [1]: 12.4 µM | Ki [2]: > 100 µM | Ki [3]: 1.55 µM

CN(C)C(=O)C(CCNCCC(O)CN1CCN(c2cccc(Cl)c2Cl)CC1)(c1ccccc1)c1ccccc1 (configuration not stated)
Ki [1]: 0.7 µM | Ki [2]: 2.78 µM | Ki [3]: 0.572 µM | Ki [4]: 0.209 µM | Ki [5]: 0.167 µM

CCc1cccc(N2CCN(CCCCNCCC(C(=O)N(C)C)(c3ccccc3)c3ccccc3)CC2)c1Cl
Ki [1]: 0.0621 µM | Ki [2]: 0.503 µM | Ki [3]: 0.0178 µM | Ki [4]: 0.0383 µM | Ki [5]: 0.0442 µM

CCOC(=O)/C=C1\[C@@H]2CCC[C@@]1(c1cccc(O)c1)CCN2CCN1CCN(c2cccc(Cl)c2Cl)CC1
Ki [1]: 0.0516 µM | Ki [2]: 1.6 µM

Oc1cccc([C@@]23CCC[C@@H]([C@H]2O)N(C/C=C/c2ccccc2)CC3)c1
Ki [1]: 7.38 µM | Ki [2]: 36.9 µM | Ki [3]: 15.7 µM | Ki [4]: 20 µM | Ki [5]: 2.79 µM

CN(C)C(=O)C(CCNCCCCN1CCc2ccc(C#N)cc2C1)(c1ccccc1)c1ccccc1
Ki [1]: 1.24 µM | Ki [2]: 58.9 µM | Ki [3]: 1.06 µM

N#CC(CCNCCCCN1CCN(c2cccc(Cl)c2Cl)CC1)(c1ccccc1)c1ccccc1
Ki [1]: 0.149 µM | Ki [2]: 0.0259 µM | Ki [5]: 0.0363 µM

CN(C)C(=O)C(CCN1CCN(c2cccc(Cl)c2Cl)CC1)(c1ccccc1)c1ccccc1
Ki [1]: 0.0747 µM | Ki [2]: 0.102 µM | Ki [5]: 0.0313 µM

Oc1cccc([C@]23CCC[C@H](NCC2)[C@H]3O)c1
Ki [1]: > 100 µM | Ki [2]: > 100 µM | Ki [3]: > 100 µM | Ki [4]: > 100 µM | Ki [5]: > 100 µM

N#CC(CCNCCC(O)CN1CCN(c2cccc(Cl)c2Cl)CC1)(c1ccccc1)c1ccccc1 (configuration not stated)
Ki [1]: 0.903 µM | Ki [2]: 0.426 µM | Ki [3]: 0.46 µM

CN(C)C(=O)C(CCNCCc1ccccc1)(c1ccccc1)c1ccccc1
Ki [1]: 3.65 µM | Ki [2]: 12.6 µM | Ki [3]: 2.08 µM
